Holding throughout (assay): growth of human tumour cells (NCI), 48 h
In assay [1] the test system is BT-549.
For assay [2], the system named is CAKI-1.
The test system of assay [3] is CCRF-CEM.
Assay [4] concerns DU-145.
Assay [5] deals with HCC 2998.
Assay [6] deals with HCT-116.
The subject of assay [7] is HCT-15.
Assay [8] deals with Hs-578T.
In assay [9] the test system is MDA-MB-231.
The subject of assay [10] is MOLT-4.
For assay [11], the system named is NCI-H460.
Assay [12] has as its system NCI-H522.
The test system of assay [13] is NCI/ADR-RES.
For assay [14], the system named is OVCAR-3.
For assay [15], the system named is OVCAR-4.
The test system of assay [16] is RPMI-8226.
The test system of assay [17] is SK-MEL-5.
For assay [18], the system named is SR.
In assay [19] the test system is TK-10.
Assay [20] concerns UACC-62.

The source of these data is ChEMBL document CHEMBL1201862, “PubChem BioAssay data set” (2004).

SMILES strings stand for the structures.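 Exposure lasted 48 hours, with cells grown in 96-well plates and compounds tested at five concentrations. GI50 = concentration required for 50% inhibition of growth.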 Activity calls are given as the source filed them. Cut-off read from the data, not from the text of the source: active = GI50 up to about 1.1 µM and inactive = higher.

In the case of `O=C(O)c1ccccc1/C=N\N=C1NCCCCN1`, the GI50 in assay [1], in assay [2], in [3], in assay [4], in assay [5] and in [6] was > 100 µM (inactive) each time. Further, the GI50 was more than 100 µM in [7]; > 100 µM (inactive) in [8]; > 100 µM (inactive) in [9]; > 100 µM (inactive) in assay [10]; > 100 µM (inactive) in assay [11]; > 100 µM (inactive) in [12]. Also, the GI50 in [13], in [14], in assay [15], in assay [16], in assay [17] and in assay [18] was > 100 µM (inactive) throughout. Also, the GI50 in assay [19] and in assay [20] was > 100 µM (inactive) throughout.

With `N#Cc1c(N)c2c(c(-c3ccccc3)c1-c1ccccc1)C(=O)N(O)C2=O`, the GI50 in assay [1] is 42.2 µM (inactive); in assay [2], > 100 µM (inactive); in assay [3], 29.8 µM (inactive); in assay [4], 39.4 µM (inactive); in assay [5] it was 17.5 µM (inactive); in assay [6], 19.5 µM (inactive). Further, the GI50 in assay [7] is 70 µM; in [8] it was 18.9 µM (inactive); in [9] it was > 100 µM (inactive); in assay [10], 35.6 µM (inactive); in [11] it was 47.1 µM (inactive); in assay [12] it was 56.2 µM (inactive). The GI50 is > 100 µM (inactive) in assay [13]; 26.9 µM (inactive) in assay [14]; 66.8 µM (inactive) in assay [15]; 42.4 µM (inactive) in assay [16]; 25.3 µM (inactive) in [17]; 62.7 µM (inactive) in [18]. The GI50 in [19] is 91.4 µM (inactive); in assay [20] it was 39.9 µM (inactive).

For `O=C(O)Cc1ccccc1` [PHENYLACETIC ACID], the GI50 is > 1000 µM (inactive) in [1]; > 100 µM (inactive) in assay [2]; > 100 µM (inactive) in [3]; > 100 µM (inactive) in assay [4]; > 100 µM (inactive) in assay [5]; > 100 µM (inactive) in assay [6]. In addition, the GI50 was more than 100 µM in assay [7]; > 100 µM (inactive) in assay [8]; > 100 µM (inactive) in [9]; > 100 µM (inactive) in [10]; > 100 µM (inactive) in [11]; > 100 µM (inactive) in assay [12]. In addition, the GI50 was > 100 µM (inactive) in [13]; > 100 µM (inactive) in assay [14]; > 100 µM (inactive) in [15]; > 100 µM (inactive) in assay [16]; > 100 µM (inactive) in assay [17]; > 1000 µM (inactive) in assay [18]. Moreover, the GI50 in assay [19] and in [20] was > 100 µM (inactive) in each case.

Regarding `Cc1cccc2c(N)c3cccc(C(=O)NCCN4CCOCC4)c3nc12`, the GI50 in assay [1] is 1.93 µM (inactive); in assay [2] it was 0.675 µM (active); in [3], 0.248 µM (active); in assay [4] it was 0.482 µM (active); in assay [5] it was 1.48 µM (inactive); in assay [6] it was 0.0889 µM (active). For the same molecule, the GI50 in assay [7] was 0.461 µM; in [8] it was 0.0849 µM (active); in assay [9] it was 0.759 µM (active); in [10], 0.0278 µM (active); in assay [11], 0.605 µM (active); in assay [12], 0.182 µM (active). Further, the GI50 is 4.35 µM (inactive) in assay [13]; 1.47 µM (inactive) in assay [14]; 0.762 µM (active) in assay [15]; 0.493 µM (active) in [16]; 0.853 µM (active) in [17]; 0.274 µM (active) in [18]. The values for the GI50 in assay [19] and in [20] were 2.1 µM (inactive) and 0.984 µM (active), respectively.

For the molecule `C[C@H]1CC[C@@H]2[C@@H](C)[C@H]3[C@H](C[C@H]4[C@@H]5CC=C6C[C@@H](O)CC[C@]6(C)[C@H]5CC[C@]34C)N2C1`, the GI50 in [1] was 93.1 µM (inactive); in [2], 41.1 µM (inactive); in assay [3], 32.5 µM (inactive); in assay [4], > 100 µM (inactive); in assay [5], 97.1 µM (inactive); in assay [6], 36.4 µM (inactive). Further, the GI50 in assay [7] was more than 100 µM; in assay [8], 33.3 µM (inactive); in [9] it was 39.4 µM (inactive); in assay [10], 24.5 µM (inactive); in assay [11] it was 37.9 µM (inactive); in [12], 42.6 µM (inactive). In addition, the GI50 is 54.7 µM (inactive) in assay [13]; > 100 µM (inactive) in assay [14]; 32.4 µM (inactive) in assay [15]; 26.3 µM (inactive) in assay [16]; 38.3 µM (inactive) in [17]; 22.6 µM (inactive) in assay [18]. Also, the GI50 in assay [19] is 33 µM (inactive); in assay [20], 43 µM (inactive).

`OC(c1cc(C23CC4CC(CC(C4)C2)C3)nc2c(Cl)cc(Cl)cc12)C1CCCCN1` (stereo not given): the GI50 in [1] was 2.02 µM (inactive); in assay [2], 1.69 µM (inactive); in assay [3] it was 0.743 µM (active); in assay [4], 1.77 µM (inactive); in assay [5], 0.344 µM (active); in assay [6], 1.36 µM (inactive). Moreover, the GI50 was 1.83 µM in [7]; 2.03 µM (inactive) in [8]; 1.82 µM (inactive) in assay [9]; 0.608 µM (active) in assay [10]; 1.61 µM (inactive) in assay [11]; 1.57 µM (inactive) in [12]. The GI50 in assay [13] was 2.06 µM (inactive); in [14], 1.78 µM (inactive); in assay [15], 1.69 µM (inactive); in assay [16], 1.77 µM (inactive); in assay [17], 2.63 µM (inactive); in assay [18], 0.705 µM (active). In addition, the GI50 in [19] is 1.84 µM (inactive); in [20], 1.76 µM (inactive).

`COc1cc(Oc2nc3ccc(C(F)(F)F)cc3nc2-c2ccccc2)cc(OC)c1OC`: the GI50 is 20.2 µM (inactive) in assay [1]; 5.06 µM (inactive) in [2]; 48.5 µM (inactive) in [3]; > 100 µM (inactive) in assay [4]; 36.2 µM (inactive) in [5]; 10.8 µM (inactive) in assay [6]. Moreover, the GI50 was more than 100 µM in assay [7]; 21.9 µM (inactive) in [8]; 23 µM (inactive) in [9]; > 10 µM (inactive) in [10]; 34 µM (inactive) in assay [11]; 25.1 µM (inactive) in [12]. In addition, the GI50 in [13] was > 100 µM (inactive); in [14], 27.5 µM (inactive); in assay [15], 6.58 µM (inactive); in [16], 36.8 µM (inactive); in assay [17], 14.5 µM (inactive); in assay [18], 34 µM (inactive). Further, the GI50 was 30.1 µM (inactive) in assay [19] and 11 µM (inactive) in assay [20].

With `O=P1(N(CCCl)CCCl)Oc2c(Cl)cc(Cl)c(Cl)c2Cc2c(Cl)c(Cl)cc(Cl)c2O1`, the GI50 is > 100 µM (inactive) in assay [1]; 64.9 µM (inactive) in [2]; 29.2 µM (inactive) in assay [3]; 71.1 µM (inactive) in assay [4]; 25.2 µM (inactive) in assay [5]; 27.9 µM (inactive) in assay [6]. The GI50 in [7] was 48 µM; in assay [8] it was 30.3 µM (inactive); in assay [9] it was 42.4 µM (inactive); in [10] it was 95.7 µM (inactive); in assay [11], 25.2 µM (inactive); in assay [12], 31 µM (inactive). The GI50 in [13] was 45 µM (inactive); in assay [14] it was 45.2 µM (inactive); in assay [15], 26.7 µM (inactive); in assay [16], 64.3 µM (inactive); in [17] it was 77.3 µM (inactive); in [18], 35.2 µM (inactive). Further, the GI50 in assay [19] is 25 µM (inactive); in assay [20], 48.3 µM (inactive).

Take `CC(=O)OCC1OC(n2c3c(cc(C#N)c2=S)CCCCC3)C(OC(C)=O)C(OC(C)=O)C1OC(C)=O` (stereo not given): the GI50 in assay [1], in [2], in [3], in assay [4], in assay [5] and in [6] was > 100 µM (inactive) throughout. Further, the GI50 in [7] was more than 100 µM; in assay [8], > 100 µM (inactive); in [9], > 100 µM (inactive); in assay [10], > 100 µM (inactive); in [11], > 100 µM (inactive); in assay [12], > 100 µM (inactive). The GI50 in assay [13], in [14], in [15], in [16], in assay [17] and in assay [18] was > 100 µM (inactive) throughout. Further, the GI50 in [19] was > 100 µM (inactive); in assay [20], 93.8 µM (inactive).

Regarding `O=[N+]([O-])c1c(O)c2nonc2c2nn(-c3ccccc3)nc12`, the GI50 in [1], in [2], in assay [3], in assay [4], in [5] and in assay [6] was > 100 µM (inactive) throughout. Moreover, the GI50 in [7] was more than 100 µM; in assay [8] it was 65.5 µM (inactive); in assay [9], > 10 µM (inactive); in [10] it was > 100 µM (inactive); in assay [11] it was > 100 µM (inactive); in assay [12] it was 40 µM (inactive). Moreover, the GI50 in assay [13] is > 100 µM (inactive); in assay [14], > 100 µM (inactive); in assay [15] it was 83.4 µM (inactive); in [16], > 100 µM (inactive); in assay [17], > 100 µM (inactive); in assay [18], > 100 µM (inactive). The GI50 in assay [19] is 55.3 µM (inactive); in assay [20], > 100 µM (inactive).
